This experiment deals with blood lymphocytes. Put plainly: Lymphopenia assay (circulating lymphocyte counts after oral gavage). The class given is in vivo. Particulars: mice; for lymphopenia (circulating lymphocyte counts): single dose 10 mg/kg in 2% hydroxypropyl beta-cyclodextrin, blood drawn after 18 hours. How it is done: The test compounds VPC122096 (benzylcyclopentyl), VPC122093 (benzylcyclohexyl) or VPC122097 (benzylcycloheptyl) compounds are dissolved in 2% hydroxypropyl beta-cyclodextrin and administered to mice by oral gavage at doses from 0.01 to 10 mg/kg body weight. After 24 hours (or other specified times), the mice are lightly anesthetized and ca. 0.1 ml of blood is drawn from the orbital sinus. The number of lymphocytes (in thousands per microliter of blood; normal is 4-11) is determined using a Hemavet blood analyzer. There were three mice per group, male, 10-11 weeks old, and the strain was mixed sv129×C57BL/6.
The test compounds VPC122096, VPC122097, or VPC122093 were dissolved in 2% aqueous hydroxypropyl beta-cyclodextrin and introduced into mice by oral gavage at 10 mg/kg (Three mice per group). Blood was drawn after 18 hours and examined. […] The results are illustrated in FIG. 3.
The test compound VPC122096, was dissolved in 2% aqueous hydroxypropyl beta-cyclodextrin (vehicle) and administered to mice orally (gavage) at doses of 0.01 mg/kg, 0.03 mg/kg, 0.1 mg/kg, 0.3 mg/kg, 1 mg/kg, and 3 mg/kg to provide a dose response curve (three-four mice per group, adult, C57Bl/6 strain). The blood samples were taken at 18 hours and 42 hours. Three mice per group, male, 10-11 week old sv129/C57Bl6 strain. The results are illustrated in FIG. 4. The ordinate represents lymphocytes in K/μl. The abscissa represents time in days after administration of a single dose. The ordinate represents lymphocytes in K/μl. The abscissa represents dose in milligram compound per kilogram body weight (mpk).
The duration of the effect of the test compounds was evaluated after administration of test compound VPC122096, dissolved in 2% aqueous hydroxypropyl beta-cyclodextrin (vehicle) and administered to mice orally (gavage). […] The blood samples were taken at 16 hours, 4 days, 12 days, and 19 days. FIG. 5 illustrates total blood lymphocyte count following the single dose of VPC122096 or vehicle.

The values that follow come from patent US7960588B2, “Benzyl cycloalkyl sphingosine 1-phosphate receptor modulators” (University of Virginia Patent Foundation, priority 2007, dated 2011).

Consider `CCCCCCCCc1ccc(CC2CCCC(CO)C2N)cc1` (centres unmarked) [VPC122093], for which the “lymphopenia (circulating lymphocyte counts)” value (oral gavage) is “evoked lymphopenia”.
`CCCCCCCCc1ccc(CC2CCCC2(N)CO)cc1` (centres unmarked) [VPC122096, (1-amino-2-(4′-octylbenzyl)cyclopentyl)methanol]: the “lymphopenia (circulating lymphocyte counts)” value (oral gavage) is recorded as “evoked lymphopenia”. Further, the “lymphopenia, duration of the effect (total blood lymphocyte count)” value (oral gavage, single dose (1.0 mg/kg per FIG. 5), blood samples at 16 hours, 4 days, 12 days, 19 days) was “evoked a long lasting lymphopenia”. Also, the duration of lymphopenia result (single ED95 dose, oral) is listed as “a week or more”.
Take `CCCCCCCCc1ccc(CC2CCCCCC2(N)CO)cc1` (centres unmarked) [VPC122097]: for the setting “oral gavage”, the “lymphopenia (circulating lymphocyte counts)” value is on record as “evoked lymphopenia”.
